The values below come from PMC3791137 (Journal of the American Chemical Society, 2013).

SMILES strings stand for the structures.

One data set concerns NSCs. Description: Sin-1-induced ZBR1 fluorescence change. The class given is cell-based, rat. Particulars: 100 μM Sin-1, first 15 min; vehicle 105 ± 7%.
The conditions of data set [1]: common buffers, physiological pH; cited from earlier work.
For data set [2] the following is noted: pH 9.5, excitation 572 nm; cited from earlier work.

For the molecule `N=c1c[n+](N2CCOCC2)[n-]o1` [Sin-1, 3-morpholinosydnonimine], in the data set on NSCs, the “Fluorescence intensity of ZBR1 after Sin-1” value was determined as 89 ± 4%. In addition, the Half-life in data set [1] was 14 to 26 min.

Take `O=c1ccc2nc3ccc(O)cc3oc-2c1` [resorufin]: in data set [2], the “Quantum yield (standard)” value is reported as 0.74.
